Assay results reported in patent US20080206215A1, “APPARATUS AND METHOD FOR TREATMENT OF MICROORGANISMS DURING PROPAGATION, CONDITIONING AND FERMENTATION” (priority 2006, published 2008).

Key:
[1] = test system: glucoamylase
[2] = test system: yeast; experiment: ethanol production from corn mash treated with ClO2 prior to fermentation; format: cell-based; conditions: ClO2 dosages of between about 10 and about 75 mg/L applied to the mash prior to fermentation; FIG. 3
Source text: FIG. 3 is a graph of time (in hours) versus ethanol produced (in grams) for mash treated with various concentrations of ClO2 prior to the fermentation process.
The ClO2 can also be added to the mash prior to the fermentation process, for example before the SSF stage. FIG. 3 is a graph of time (in hours) versus ethanol produced (in grams) for mash treated with various concentrations of ClO2 prior to the fermentation process.

[3] = test system: yeast; experiment: ethanol production in fermentation batches treated with ClO2 during fermentation; format: cell-based; conditions: ClO2 dosages of less than about 15 mg/L applied directly to the fermentation mixture; FIG. 2
Source text: FIG. 2 is a graph of time (in hours) versus ethanol produced (in grams) for fermentation batches treated with various concentrations of ClO2 during fermentation.
As mentioned above, ClO2 can be added directly into the fermentation mixture. This can be done by adding the ClO2 in conjunction with the yeast and glucoamylase, for example during the SSF stage. FIG. 2 is a graph of time (in hours) versus ethanol produced (in grams) for fermentation batches treated with various concentrations of ClO2 during fermentation.

[4] = test system: bacteria; experiment: amount of bacteria (CFU/g) in fermenting mash treated with antimicrobial agents; format: cell-based; conditions: FIG. 5
Source text: FIG. 5 is a bar graph showing the amount of bacteria present (in CFU/g) in fermenting mash treated with different antimicrobial agents (in ppm) at different times (in hours).
FIG. 5 is a bar graph showing the amount of bacteria present (in CFU/g) in fermenting mash treated with different levels of an antimicrobial agent (in ppm), either ClO2 or antibiotic, at different times (in hours).

[5] = test system: yeast; experiment: yeast viability in corn mash treated with ClO2 during propagation/conditioning; format: cell-based; conditions: yeast treated with ClO2 during propagation/conditioning phase; FIG. 4
Source text: FIG. 4 is a bar graph of viability (% of yeast cells living out of the original number) over time (in hours) in the corn mash treated with 0, 10 and 50 ppm of ClO2.
Chlorine dioxide can also be added during propagation and/or conditioning. For example ClO2 can be added to the yeast slurry before SSF replacing the acid washing step. FIG. 4 is a bar graph of viability (% of yeast cells living out of the original number) over time (in hours) in the corn mash treated with 0, 10 and 500 ppm of ClO2. […] The yeast can tolerate a ClO2 environment and remain viable at high concentrations of ClO2. Competing bacteria, wild yeast, molds, etc. will succumb to the ClO2 leaving only highly viable yeast for fermentation without the additional stress of traditional acid washing. Chlorine dioxide dosages of less than about 50 mg/L may be applied directly to the yeast during propagation.

[6] = test system: Weisella confusa; conditions: background statement; cited from earlier work
[7] = test system: fermentation; conditions: background statement; cited from earlier work

[O][Cl+][O-] [ClO2, Chlorine dioxide]
reaction with glucoamylase [1]: does not exhibit a significant reaction with glucoamylase | ethanol production versus control [2]: greater ethanol production than the control containing no ClO2 | ethanol production versus control [3]: greater ethanol production than the control containing no ClO2 | microbial reduction versus untreated mash ([4]; corn mash treated with ClO2, after 72 hours): greater microbial reduction than untreated mash | microbial reduction versus antibiotic-treated mash ([4]; corn mash treated with greater than 10 ppm of ClO2, after 72 hours): greater microbial reduction than the corn mash treated with antibiotic | greater yeast viability than untreated yeast [5]: up to 80%

[O-][Cl+]O [chlorite ion]
concentration that inhibits the glucoamylase enzyme ([1]; 5% maltose solution, FIG. 6): ≥ 14 mg/L

Virginiamycin
concentration required to inhibit growth [6]: over 25 mg/L | concentration that suppresses fermentation [7]: over 2 mg/L
